The test system of test [1] is leukemic Pten:β-cat^Act (T-ALL) mice. Kind of test: Long-term survival of treated leukemic mice. The conditions noted are these: single treatment cycle, no transplantation. It counts as in vivo, mouse. How it is done:
Chemotherapy consisted of Nelarabine (Selleck) and Dexamethasone (BioVision) administered daily for 5 days consecutively. 43.4 mg/ml Nelarabine was administered intravenously via the tail vain according to the formula: Body Weight (g)×5=volume to inject (μl), which yielded 217 mg/kg. 2.5 mg/ml Dexamethasone was injected intraperitoneally according to the formula: Body Weight (g)×4=volume to inject (μl), yielding 10 mg/kg. […] [Low]NanoDXR (also referred to as [Low]NanoDoxo throughout) treatment used doxorubicin nanoparticles as described in International Patent Publication WO 2015/054269 (incorporated by reference in its entirety) administered as a single IV injection once per week on day 1 relative to above treatments using 0.8 mg/kg. Maintenance [Low]NanoDXR consisted of once per week injections of 0.4 mg/kg. Groups combining Nelarabine with Doxorubicin used a single injection containing both drugs. All drugs were solubilized in 45% (2-Hydroxypropyl)-β-cyclodextrin (HBC).

The test system of test [2] is LSCs and HSPCs of leukemic Pten:β-catAct mice. Kind of test: Example 6: LSCs and HSPCs in BM of leukemic mice, Doxo vs NanoDoxo vs Doxil with chemotherapy. It counts as in vivo, mouse. The note with it: Doxo 0.5 mg/kg x5 daily, NanoDoxo or Doxil single 0.8 mg/kg, BM 5-6 days after treatment. From the text:
All drugs were solubilized in 45% (2-Hydroxypropyl)-β-cyclodextrin (HBC).

SMILES strings stand for the structures.

Take `COc1cccc2c1C(=O)c1c(O)c3c(c(O)c1C2=O)C[C@@](O)(C(=O)CO)C[C@@H]3O[C@H]1C[C@H](N)[C@H](O)[C@H](C)O1` [DXR, doxorubicin]: the “survival of treated leukemic mice” value in test [1] is “only minor and insignificant improvement”. In addition, in test [2], the “HSPC recovery in BM” value is given as “facilitates recovery of HSPCs” and the “LSCs in BM” value is listed as “prevents this expansion”.

The values above are taken from patent US11173173B2, “Methods for treating chemoresistant cancer-initiating cells” (UNIVERSITY OF CONNECTICUT, priority 2015, dated 2021).
